Experimental data taken from patent US20210309631A1, “SALT OF CYCLOHEXANE DERIVATIVE” (priority 2018, published 2021).
Like-named read-outs stand apart in the source and are kept apart here.

Key:
solubility in water = format: physicochemical; details: listed as crystal Form A of the free base
[1] = Hygroscopicity (DVS) experiment, 25° C./80% relative humidity; format: physicochemical; details: DVS, 25° C./80% relative humidity; listed as Example 1 free base
Method: Dynamic vapor sorption curves were collected on a DVS Intrinsic by SMS (Surface Measurement Systems).
20 mg sample of the crystal forms of the Examples and Comparative Examples are placed in the environment of 25° C./80% relative humidity for a dynamic vapor sorption (DVS) test, and the test results […] are shown in Table 5.

[2] = Plasma pharmacokinetics in SD rats after single intragastric administration (Example 7); format: in vivo; details: intragastric 1 mg/kg, Mean ± SD, non-compartmental model, listed as free base
Method: The in vivo absorption process and characteristics of the free base and four salts thereof (sulfate, hydrochloride salt, phosphate, maleate) of compound (I) in rats were studied. The pharmacokinetics of a single intragastric administration of 1 mg/kg of a compound of Formula I and four salts thereof (calculated by free base concentration in salt form) were studied in SD rats.
SD rats were given a single intragastric administration of 1 mg/kg free base of Example 1 and four salts thereof (including hydrochloride salt from Example 2, sulfate from Example 3, phosphate from Example 4 and maleate from Example 5). There were 4 male rats in each group. The concentration of the compound of Formula I in plasma was determined, and the pharmacokinetic parameters were calculated according to the concentration-time curve.

[3] = In vivo individual difference analysis: individual plasma concentration versus time in rats (Example 8); parameters: species or system SD rats; details: intragastric 1 mg/kg; for Plasma Concentrations of Compound of Formula I: listed as Compound of Formula I; for concentration at 0 h: 0 h after administration
Method: Compound of Formula I and salts thereof (sulfate, hydrochloride salt, phosphate, maleate), supplied by Shanghai Jingxin Biopharmaceutical Co., Ltd. • Strain: SD rats; Gender: male; Body weight: about 250 grams; Source: shanghai Jiesijie Experimental Animal Co., Ltd Route: single intragastric administration; Capacity: measured in 10 mL/kg body weight Preparation: weighing appropriate amount of the free base or salt of the compound of Formula I, adding a small amount of 0.5% CMC-Na to grind, adding 0.5% CMC-Na to the volume. The concentration is measured as the base. 20 SD rats were divided into 5 groups with 4 rats in each group, fasted for 12 h and drank freely before administration. […] The blood was anticoagulated with 1% heparin, the plasma was separated by 8000 rpm centrifugation for 4 min and stored at -40° C. for testing. LC-MS/MS Method. Pharmacokinetic parameters after administration in rats were calculated using a non-compartmental model of DAS 2.0 software.

Structure (SMILES): CN(C)C(=O)N[C@H]1CC[C@H](CCN2CCN(c3cccc4ccsc34)CC2)CC1 [Example 1, N′-[trans-4-[2-[7-(benzo[b]thiophene)-7-piperazinyl]ethyl]cyclohexyl]-N,N-dimethylurea]
- solubility in water (solubility in water): about 0.031 mg/ml
- Hygroscopicity [1]: Almost no
- Vapor sorption [1]: 0.16%
- MRT0-∞ [2]: 3.63 ± 0.306 h
- Tmax [2]: 0.583 ± 0.289 h
- t1/2 [2]: 2.78 ± 0.463 h
- Plasma Concentrations of Compound of Formula I ([3]; 5 min after administration, Mean ± SD): 3.40 ± 5.74 ng/mL
- Plasma Concentrations of Compound of Formula I ([3]; 5 min after administration, rat 1♂): 0.419 ng/mL
- Plasma Concentrations of Compound of Formula I ([3]; 5 min after administration, rat 2♂): 0.624 ng/mL
- Plasma Concentrations of Compound of Formula I ([3]; 5 min after administration, rat 3♂): 12.0 ng/mL
- Plasma Concentrations of Compound of Formula I ([3]; 5 min after administration, rat 4♂): 0.543 ng/mL
- Plasma Concentrations of Compound of Formula I ([3]; 0.167 h after administration, rat 1♂): 6.35 ng/mL
- Plasma Concentrations of Compound of Formula I ([3]; 0.167 h after administration, rat 3♂): 25.8 ng/mL
- Plasma Concentrations of Compound of Formula I ([3]; 0.333 h after administration, rat 1♂): 26.8 ng/mL
- Plasma Concentrations of Compound of Formula I ([3]; 0.333 h after administration, rat 2♂): 33.0 ng/mL
- Plasma Concentrations of Compound of Formula I ([3]; 0.333 h after administration, rat 3♂): 51.8 ng/mL
- Plasma Concentrations of Compound of Formula I ([3]; 0.5 h after administration, rat 2♂): 37.2 ng/mL
- Plasma Concentrations of Compound of Formula I ([3]; 0.5 h after administration, rat 3♂): 51.6 ng/mL
- Plasma Concentrations of Compound of Formula I ([3]; 1 h after administration, rat 3♂): 45.6 ng/mL
- Plasma Concentrations of Compound of Formula I ([3]; 2 h after administration, rat 3♂): 23.9 ng/mL
- Plasma Concentrations of Compound of Formula I ([3]; 2 h after administration, rat 4♂): 40.3 ng/mL
- Plasma Concentrations of Compound of Formula I ([3]; 4 h after administration, rat 2♂): 6.30 ng/mL
- Plasma Concentrations of Compound of Formula I ([3]; 4 h after administration, rat 3♂): 7.95 ng/mL
- Plasma Concentrations of Compound of Formula I ([3]; 4 h after administration, rat 4♂): 16.0 ng/mL
- Plasma Concentrations of Compound of Formula I ([3]; 6 h after administration, rat 2♂): 1.94 ng/mL
- Plasma Concentrations of Compound of Formula I ([3]; 6 h after administration, rat 4♂): 8.91 ng/mL
- Plasma Concentrations of Compound of Formula I ([3]; 9 h after administration, rat 2♂): 0.95 ng/mL
- Plasma Concentrations of Compound of Formula I ([3]; 9 h after administration, rat 4♂): 3.30 ng/mL
- Plasma Concentrations of Compound of Formula I ([3]; 12 h after administration, rat 1♂): 0.372 ng/mL
- Plasma Concentrations of Compound of Formula I ([3]; 12 h after administration, rat 2♂): 0.578 ng/mL
- Plasma Concentrations of Compound of Formula I ([3]; 12 h after administration, rat 3♂): 0.682 ng/mL
- Plasma Concentrations of Compound of Formula I ([3]; 12 h after administration, rat 4♂): 1.66 ng/mL
- Plasma Concentrations of Compound of Formula I ([3]; 24 h after administration, Mean ± SD): 0.497 ± 0.273 ng/mL
- Plasma Concentrations of Compound of Formula I ([3]; 24 h after administration, rat 1♂): 0.487 ng/mL
- Plasma Concentrations of Compound of Formula I ([3]; 24 h after administration, rat 2♂): 0.308 ng/mL
- Plasma Concentrations of Compound of Formula I ([3]; 24 h after administration, rat 3♂): 0.886 ng/mL
- Plasma Concentrations of Compound of Formula I ([3]; 24 h after administration, rat 4♂): 0.306 ng/mL
- concentration at 0 h ([3]; male, SD, rat, plasma, oral, 1 mg/kg, Mean ± SD, read-out: Plasma Concentrations of Compound of Formula I): 0 ng/mL
- concentration at 0 h ([3]; male, SD, rat, plasma, oral, 1 mg/kg, rat 1♂, read-out: Plasma Concentrations of Compound of Formula I): 0 ng/mL
- concentration at 0 h ([3]; male, SD, rat, plasma, oral, 1 mg/kg, rat 2♂, read-out: Plasma Concentrations of Compound of Formula I): 0 ng/mL
- concentration at 0 h ([3]; male, SD, rat, plasma, oral, 1 mg/kg, rat 3♂, read-out: Plasma Concentrations of Compound of Formula I): 0 ng/mL
- concentration at 0 h ([3]; male, SD, rat, plasma, oral, 1 mg/kg, rat 4♂, read-out: Plasma Concentrations of Compound of Formula I): 0 ng/mL
- concentration at 0.167 h ([3]; male, SD, rat, plasma, oral, 1 mg/kg, 0.167 h after administration, Mean ± SD, read-out: Plasma Concentrations of Compound of Formula I): 14.9 ± 8.3 ng/mL
- concentration at 0.167 h ([3]; male, SD, rat, plasma, oral, 1 mg/kg, 0.167 h after administration, rat 2♂, read-out: Plasma Concentrations of Compound of Formula I): 11.3 ng/mL
- concentration at 0.167 h ([3]; male, SD, rat, plasma, oral, 1 mg/kg, 0.167 h after administration, rat 4♂, read-out: Plasma Concentrations of Compound of Formula I): 16.3 ng/mL
- concentration at 0.333 h ([3]; male, SD, rat, plasma, oral, 1 mg/kg, 0.333 h after administration, Mean ± SD, read-out: Plasma Concentrations of Compound of Formula I): 42.2 ± 14.5 ng/mL
- concentration at 0.333 h ([3]; male, SD, rat, plasma, oral, 1 mg/kg, 0.333 h after administration, rat 4♂, read-out: Plasma Concentrations of Compound of Formula I): 57 ng/mL
- concentration at 0.5 h ([3]; male, SD, rat, plasma, oral, 1 mg/kg, 0.5 h after administration, Mean ± SD, read-out: Plasma Concentrations of Compound of Formula I): 46.4 ± 13.7 ng/mL
- concentration at 0.5 h ([3]; male, SD, rat, plasma, oral, 1 mg/kg, 0.5 h after administration, rat 1♂, read-out: Plasma Concentrations of Compound of Formula I): 33.6 ng/mL
- concentration at 0.5 h ([3]; male, SD, rat, plasma, oral, 1 mg/kg, 0.5 h after administration, rat 4♂, read-out: Plasma Concentrations of Compound of Formula I): 63.3 ng/mL
- concentration at 1 h ([3]; male, SD, rat, plasma, oral, 1 mg/kg, 1 h after administration, Mean ± SD, read-out: Plasma Concentrations of Compound of Formula I): 43.7 ± 14.8 ng/mL
- concentration at 1 h ([3]; male, SD, rat, plasma, oral, 1 mg/kg, 1 h after administration, rat 1♂, read-out: Plasma Concentrations of Compound of Formula I): 29.4 ng/mL
- concentration at 1 h ([3]; male, SD, rat, plasma, oral, 1 mg/kg, 1 h after administration, rat 2♂, read-out: Plasma Concentrations of Compound of Formula I): 36.3 ng/mL
- concentration at 1 h ([3]; male, SD, rat, plasma, oral, 1 mg/kg, 1 h after administration, rat 4♂, read-out: Plasma Concentrations of Compound of Formula I): 63.6 ng/mL
- concentration at 2 h ([3]; male, SD, rat, plasma, oral, 1 mg/kg, 2 h after administration, Mean ± SD, read-out: Plasma Concentrations of Compound of Formula I): 25.1 ± 10.6 ng/mL
- concentration at 2 h ([3]; male, SD, rat, plasma, oral, 1 mg/kg, 2 h after administration, rat 1♂, read-out: Plasma Concentrations of Compound of Formula I): 16.8 ng/mL
- concentration at 2 h ([3]; male, SD, rat, plasma, oral, 1 mg/kg, 2 h after administration, rat 2♂, read-out: Plasma Concentrations of Compound of Formula I): 19.2 ng/mL
- concentration at 4 h ([3]; male, SD, rat, plasma, oral, 1 mg/kg, 4 h after administration, Mean ± SD, read-out: Plasma Concentrations of Compound of Formula I): 8.91 ± 4.85 ng/mL
- concentration at 4 h ([3]; male, SD, rat, plasma, oral, 1 mg/kg, 4 h after administration, rat 1♂, read-out: Plasma Concentrations of Compound of Formula I): 5.38 ng/mL
- concentration at 6 h ([3]; male, SD, rat, plasma, oral, 1 mg/kg, 6 h after administration, Mean ± SD, read-out: Plasma Concentrations of Compound of Formula I): 3.99 ± 3.32 ng/mL
- concentration at 6 h ([3]; male, SD, rat, plasma, oral, 1 mg/kg, 6 h after administration, rat 1♂, read-out: Plasma Concentrations of Compound of Formula I): 2.03 ng/mL
- concentration at 6 h ([3]; male, SD, rat, plasma, oral, 1 mg/kg, 6 h after administration, rat 3♂, read-out: Plasma Concentrations of Compound of Formula I): 3.06 ng/mL
- concentration at 9 h ([3]; male, SD, rat, plasma, oral, 1 mg/kg, 9 h after administration, Mean ± SD, read-out: Plasma Concentrations of Compound of Formula I): 1.65 ± 1.13 ng/mL
- concentration at 9 h ([3]; male, SD, rat, plasma, oral, 1 mg/kg, 9 h after administration, rat 1♂, read-out: Plasma Concentrations of Compound of Formula I): 0.876 ng/mL
- concentration at 9 h ([3]; male, SD, rat, plasma, oral, 1 mg/kg, 9 h after administration, rat 3♂, read-out: Plasma Concentrations of Compound of Formula I): 1.47 ng/mL
- concentration at 12 h ([3]; male, SD, rat, plasma, oral, 1 mg/kg, 12 h after administration, Mean ± SD, read-out: Plasma Concentrations of Compound of Formula I): 0.823 ± 0.573 ng/mL
